The experiment concerns the target T1, ABCG2 (Homo sapiens, UniProt Q9UNQ0).
T1 sequence (Q9UNQ0 1-655): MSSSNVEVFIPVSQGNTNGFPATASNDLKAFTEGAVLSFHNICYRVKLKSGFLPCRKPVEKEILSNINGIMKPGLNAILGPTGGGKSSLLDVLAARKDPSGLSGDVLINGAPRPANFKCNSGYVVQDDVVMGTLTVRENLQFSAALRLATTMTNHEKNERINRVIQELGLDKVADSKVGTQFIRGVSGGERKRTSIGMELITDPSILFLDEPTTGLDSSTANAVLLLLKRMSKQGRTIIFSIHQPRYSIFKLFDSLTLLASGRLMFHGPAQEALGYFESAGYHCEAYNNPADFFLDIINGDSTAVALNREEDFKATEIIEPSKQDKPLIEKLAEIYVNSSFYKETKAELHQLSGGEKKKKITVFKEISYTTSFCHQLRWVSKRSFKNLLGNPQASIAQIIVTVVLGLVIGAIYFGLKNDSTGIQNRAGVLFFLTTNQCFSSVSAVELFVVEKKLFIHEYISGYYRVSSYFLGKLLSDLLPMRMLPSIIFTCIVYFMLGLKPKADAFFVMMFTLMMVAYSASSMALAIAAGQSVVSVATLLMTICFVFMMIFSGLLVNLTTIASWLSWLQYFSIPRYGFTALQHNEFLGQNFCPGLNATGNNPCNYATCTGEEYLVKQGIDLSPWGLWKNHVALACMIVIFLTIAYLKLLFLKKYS
Kind of experiment: inhibition of mitoxantrone efflux in HEK293ABCG2 cells, flow cytometry. Type of experiment: cell-based. Particulars: read-out: ABCG2 / EC50.

With `O=[N+]([O-])c1ccc(/C=C/c2sc(Nc3ccccc3)n[n+]2-c2ccccc2)cc1` [MI-D, 4-phenyl-5-(4-nitrocinnamoyl)-1,3,4-thiadiazolium-2-phenylamine chloride], the IC50 was determined as 24.3 ± 9.6 µM. Under `Oc1ccc(/C=C/c2sc(Nc3ccccc3)n[n+]2-c2ccccc2)cc1` [MI-J] stands 8.5 ± 4.8 µM.

Values taken from publication PMC4470815, “Selective Cytotoxicity of 1,3,4-Thiadiazolium Mesoionic Derivatives on Hepatocarcinoma Cells (HepG2)” (PLoS ONE, 2015).
